From ChEMBL document CHEMBL1201862, “PubChem BioAssay data set” (2004)
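Exposure lasted 48 hours, with cells grown in 96-well plates and compounds tested at five concentrations. GI50 = concentration required for 50% inhibition of growth.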 Activity calls are given as the source filed them. Rule as the data show it: active = GI50 up to about 1.1 µM and inactive = higher.

Assays:
Experiment in all cases: NCI tumour cell line growth inhibition, 48 h
786-0 = system: 786-0
A498 = system: A498
A549 = system: A549
ACHN = system: ACHN
CAKI-1 = system: CAKI-1
CCRF-CEM = system: CCRF-CEM
COLO 205 = system: COLO 205
DMS-114 = system: DMS-114
DMS-273 = system: DMS-273
HCC 2998 = system: HCC 2998
HCT-116 = system: HCT-116
HCT-15 = system: HCT-15
HL-60 = system: HL-60
HOP-62 = system: HOP-62
HOP-92 = system: HOP-92
HT-29 = system: HT-29
IGROV-1 = system: IGROV-1
K562 = system: K562
KM-20L2 = system: KM-20L2
KM12 = system: KM12
LOX IMVI = system: LOX IMVI
LXFL 529 = system: LXFL 529
M14 = system: M14
M19-MEL = system: M19-MEL
MOLT-4 = system: MOLT-4
Malme-3M = system: Malme-3M
NCI-H226 = system: NCI-H226
NCI-H23 = system: NCI-H23
NCI-H460 = system: NCI-H460
NCI-H522 = system: NCI-H522
OVCAR-3 = system: OVCAR-3
OVCAR-4 = system: OVCAR-4
OVCAR-5 = system: OVCAR-5
OVCAR-8 = system: OVCAR-8
RPMI-8226 = system: RPMI-8226
RXF 393 = system: RXF 393
RXF 631 = system: RXF 631
SF-268 = system: SF-268
SF-295 = system: SF-295
SF-539 = system: SF-539
SK-MEL-28 = system: SK-MEL-28
SK-MEL-2 = system: SK-MEL-2
SK-MEL-5 = system: SK-MEL-5
SK-OV-3 = system: SK-OV-3
SN12C = system: SN12C
SNB-19 = system: SNB-19
SNB-75 = system: SNB-75
SNB-78 = system: SNB-78
SW-620 = system: SW-620
TK-10 = system: TK-10
U-251 = system: U-251
UACC-257 = system: UACC-257
UACC-62 = system: UACC-62
UO-31 = system: UO-31
XF498 = system: XF498

O=C(CCc1nnc(S)[nH]1)Nc1cc(Cl)c(Cl)cc1Cl
GI50 (786-0): > 100 µM (inactive)
GI50 (A498): > 100 µM (inactive)
GI50 (A549): > 100 µM (inactive)
GI50 (ACHN): > 100 µM (inactive)
GI50 (CAKI-1): > 100 µM (inactive)
GI50 (CCRF-CEM): > 100 µM (inactive)
GI50 (COLO 205): > 100 µM (inactive)
GI50 (DMS-114): > 100 µM (inactive)
GI50 (DMS-273): > 100 µM (inactive)
GI50 (HCC 2998): > 100 µM (inactive)
GI50 (HCT-116): > 100 µM (inactive)
GI50 (HCT-15): > 100 µM
GI50 (HL-60): > 100 µM (inactive)
GI50 (HOP-62): > 100 µM (inactive)
GI50 (HOP-92): > 100 µM (inactive)
GI50 (HT-29): > 100 µM (inactive)
GI50 (IGROV-1): > 100 µM (inactive)
GI50 (K562): > 100 µM (inactive)
GI50 (KM-20L2): > 100 µM (inactive)
GI50 (KM12): > 100 µM (inactive)
GI50 (LOX IMVI): > 100 µM (inactive)
GI50 (LXFL 529): > 100 µM (inactive)
GI50 (M14): > 100 µM (inactive)
GI50 (M19-MEL): > 100 µM (inactive)
GI50 (MOLT-4): > 100 µM (inactive)
GI50 (Malme-3M): > 100 µM (inactive)
GI50 (NCI-H226): > 100 µM (inactive)
GI50 (NCI-H23): > 100 µM (inactive)
GI50 (NCI-H460): > 100 µM (inactive)
GI50 (NCI-H522): > 100 µM (inactive)
GI50 (OVCAR-3): > 100 µM (inactive)
GI50 (OVCAR-4): > 100 µM (inactive)
GI50 (OVCAR-5): > 100 µM (inactive)
GI50 (OVCAR-8): > 100 µM (inactive)
GI50 (RPMI-8226): > 100 µM (inactive)
GI50 (RXF 393): > 100 µM (inactive)
GI50 (RXF 631): > 100 µM (inactive)
GI50 (SF-268): > 100 µM (inactive)
GI50 (SF-295): > 100 µM (inactive)
GI50 (SF-539): > 100 µM (inactive)
GI50 (SK-MEL-28): > 100 µM (inactive)
GI50 (SK-MEL-2): > 100 µM (inactive)
GI50 (SK-MEL-5): > 100 µM (inactive)
GI50 (SK-OV-3): > 100 µM (inactive)
GI50 (SN12C): > 100 µM (inactive)
GI50 (SNB-19): > 100 µM (inactive)
GI50 (SNB-75): 25.4 µM (inactive)
GI50 (SNB-78): > 100 µM (inactive)
GI50 (SW-620): > 100 µM (inactive)
GI50 (TK-10): > 100 µM (inactive)
GI50 (U-251): > 100 µM (inactive)
GI50 (UACC-257): > 100 µM (inactive)
GI50 (UACC-62): > 100 µM (inactive)
GI50 (UO-31): > 100 µM (inactive)
GI50 (XF498): > 100 µM (inactive)
